System: C57Bl/6 otic progenitors
Assay: Stemness reprogramming and regeneration in hair cell progenitors
Type: cell-based, mouse
Conditions: 30 days, with CHIR99021 3 μM
Method: C57Bl/6 otic progenitors were plated at 10,000 cells/well of a 96 well plate and treated with WNT agonist (CHIR99021; 3 μM) and the above mentioned compounds for 30 days. (A) Graph representing the average growth (% otic progenitors cultured in presence of GF+CHIR) after 30 days. […] Data represent the average±SEM of three independent experiments.
For reprogramming stemness of auditory hair cells, C57Bl/6 otic progenitors were plated at 10,000 cells/well of a 96 well plate and treated with WNT agonist (CHIR99021; 3 μM) and the above mentioned compounds for 30 days.

COc1cc(-c2cc(-c3ccc(N4CCNCC4)cc3)cnc2C)cc(OC)c1OC [compound 51, LDN-214117]
stemness reprogramming, average growth (% otic progenitors cultured in presence of GF+CHIR): particularly good candidates
